Results as given in patent publication EP4671240A1, “SALT CONTAINING AROMATIC RING DERIVATIVE ANTAGONIST, PREPARATION METHOD THEREFOR, AND APPLICATION THEREOF” (Jiangsu Hansoh Pharmaceutical Group Co., Ltd., priority 2023, dated 2024).

Target: T1, AT1 receptors (Homo sapiens, UniProt P30556)
T1 construct: host or cells: HEK293
T1 sequence (P30556 1-359): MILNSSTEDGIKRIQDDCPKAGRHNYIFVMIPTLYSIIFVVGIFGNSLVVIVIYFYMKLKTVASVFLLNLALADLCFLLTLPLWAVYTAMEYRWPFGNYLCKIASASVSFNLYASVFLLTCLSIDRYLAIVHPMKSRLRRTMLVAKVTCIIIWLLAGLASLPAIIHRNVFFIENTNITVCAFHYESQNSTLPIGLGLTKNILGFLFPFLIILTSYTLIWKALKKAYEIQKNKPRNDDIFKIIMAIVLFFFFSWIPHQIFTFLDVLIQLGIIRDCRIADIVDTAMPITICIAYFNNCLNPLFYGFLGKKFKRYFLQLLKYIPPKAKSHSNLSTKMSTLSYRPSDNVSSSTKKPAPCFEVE
Experiment: effect on calcium current in cells stably expressing AT1 receptors (HEK293-AT1, FLIPR, antagonist)
Format: cell-based
Details: 11 concentration points 10 uM to 0.17 nM
Description: Test example 1. Determination of the effect of the compounds of the present invention on calcium current in cells stably expressing AT1 receptors 1. Experimental objective: To test the antagonistic effect of compounds on HEK293-AT1 cell activity 2. Experimental instruments and reagents: 2.1 Instruments: • 384-well assay plate (Corning: 3764); • 384-well Echo compound plate (Labcyte: LP-0200); • 384-well compound plate (PE: 6008590); • Bravo Tip (Agilent: 10734-202); • FLIPR Tip (Molecular Device: 9000-0764); • Plate reader FLIPR Tetra (Molecular Device); • Pipetting workstation Bravo (Agilent); • ECHO 550 (LABCYTE); • Liquid injector Multidrop Combi (ThermoFisher). […] Experimental data processing method: FLIPR Tetra was used to read and collect the fluorescence signal value (RFU). The maximum RFU value was used to calculate the percent activation data based on the readings of the Low control (DMSO control) and High control (100 nM positive compound) experimental groups {% activation rate = (RFUsample - RFUlow control) / (RFUhigh control - RFUlow control)×100}. […]

Structure (SMILES)	IC50 [nM]
[2H]C([2H])(c1ccc(-c2ccccc2S(=O)(=O)Nc2noc(C)c2Cl)c(COCC)c1)N1C(=O)C2(CCCC2)N=C1CCCC [Example 2, 4'-((2-Butyl-4-oxo-1,3-diazaspiro[4.4]non-1-en-3-yl)methyl-d2)-N-(4-chloro-5-methylisoxazol-3-yl)-2'-(ethoxymethyl)-[1,1'-biphenyl]-2-sulfonamide]	6.2
CCCCC1=NC2(CCCC2)C(=O)N1Cc1ccc(-c2ccccc2S(=O)(=O)Nc2noc(C)c2Cl)c(COCC)c1 [Example 8, 2-[4-[(2-Butyl-4-oxo-1,3-diazaspiro[4.4]non-1-en-3-yl)methyl]-2-(ethoxymethyl)phenyl]-N-(4-chloro-5-methyl-isoxazol-3-yl)benzenesulfonamide]	3.2
